# PubChem BioAssay AID2060331 (Molecular Pharmacology Branch, DTP, NCI, 2025)
# Test system: Hs578T multi-cell spheroids, viability
# Assay: Anticancer human tumor Hs578T cell line growth inhibition [IpAb];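 note: drug exposure lasted 7 days before readout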
# Settings: for IC50: curve of first compound; for viability, T/C: stronger effect = lower value
# Procedure, shortened: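 Combinations with ipatasertib or abemaciclib were tested on tumour spheroids holding HUVEC (25%) and MSC (15%) alongside 60% malignant cells. Top concentration was at or near clinical Cmax (10 microM if undefined), descending in half-log steps.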
# [1] = second compound 0.01 µM, first compound 0.00949 µM
# [2] = second compound 0.01 µM, first compound 0.03 µM
# [3] = second compound 0.01 µM, first compound 0.0949 µM
# [4] = second compound 0.01 µM, first compound 0.3 µM
# [5] = second compound 0.0316 µM, first compound 0.00949 µM
# [6] = second compound 0.0316 µM, first compound 0.03 µM
# [7] = second compound 0.0316 µM, first compound 0.0949 µM
# [8] = second compound 0.0316 µM, first compound 0.3 µM
# [9] = second compound 0.1 µM, first compound 0.00949 µM
# [10] = second compound 0.1 µM, first compound 0.03 µM
# [11] = second compound 0.1 µM, first compound 0.0949 µM
# [12] = second compound 0.1 µM, first compound 0.3 µM
# [13] = second compound 0.316 µM, first compound 0.00949 µM
# [14] = second compound 0.316 µM, first compound 0.03 µM
# [15] = second compound 0.316 µM, first compound 0.0949 µM
# [16] = second compound 0.316 µM, first compound 0.3 µM
# [17] = second compound 1 µM, first compound 0.00949 µM
# [18] = second compound 1 µM, first compound 0.03 µM
# [19] = second compound 1 µM, first compound 0.0949 µM
# [20] = second compound 1 µM, first compound 0.3 µM
# [21] = second compound 0.01 µM, first compound 0.0316 µM
# [22] = second compound 0.01 µM, first compound 0.1 µM
# [23] = second compound 0.01 µM, first compound 0.316 µM
# [24] = second compound 0.01 µM, first compound 1 µM
# [25] = second compound 0.0316 µM, first compound 0.0316 µM
# [26] = second compound 0.0316 µM, first compound 0.1 µM
# [27] = second compound 0.0316 µM, first compound 0.316 µM
# [28] = second compound 0.0316 µM, first compound 1 µM
# [29] = second compound 0.1 µM, first compound 0.0316 µM
# [30] = second compound 0.1 µM, first compound 0.1 µM
# [31] = second compound 0.1 µM, first compound 0.316 µM
# [32] = second compound 0.1 µM, first compound 1 µM
# [33] = second compound 0.316 µM, first compound 0.0316 µM
# [34] = second compound 0.316 µM, first compound 0.1 µM
# [35] = second compound 0.316 µM, first compound 0.316 µM
# [36] = second compound 0.316 µM, first compound 1 µM
# [37] = second compound 1 µM, first compound 0.0316 µM
# [38] = second compound 1 µM, first compound 0.1 µM
# [39] = second compound 1 µM, first compound 0.316 µM
# [40] = second compound 1 µM, first compound 1 µM
# [41] = second compound 0.01 µM, first compound 3.16 µM
# [42] = second compound 0.01 µM, first compound 10 µM
# [43] = second compound 0.0316 µM, first compound 3.16 µM
# [44] = second compound 0.0316 µM, first compound 10 µM
# [45] = second compound 0.1 µM, first compound 3.16 µM
# [46] = second compound 0.1 µM, first compound 10 µM
# [47] = second compound 0.316 µM, first compound 3.16 µM
# [48] = second compound 0.316 µM, first compound 10 µM
# [49] = second compound 1 µM, first compound 3.16 µM
# [50] = second compound 1 µM, first compound 10 µM
compound,measurement,setting,value
CC(=O)c1c(C)c2cnc(Nc3ccc(N4CCNCC4)cn3)nc2n(C2CCCC2)c1=O + CCN1CCN(Cc2ccc(Nc3ncc(F)c(-c4cc(F)c5nc(C)n(C(C)C)c5c4)n3)nc2)CC1,IC50,second compound 0.01 µM,> 300 nM
same,IC50,second compound 0.0316 µM,> 300 nM
same,IC50,second compound 0.1 µM,> 300 nM
same,IC50,second compound 0.316 µM,> 300 nM
same,IC50,second compound 1 µM,> 300 nM
same,"viability, T/C","second compound 0.01 µM, first compound 0.000949 µM",106%
same,"viability, T/C","second compound 0.01 µM, first compound 0.003 µM",95.1%
same,"viability, T/C",[1],95%
same,"viability, T/C",[2],81.9%
same,"viability, T/C",[3],77.5%
same,"viability, T/C",[4],63.4%
same,"viability, T/C","second compound 0.0316 µM, first compound 0.000949 µM",91.3%
same,"viability, T/C","second compound 0.0316 µM, first compound 0.003 µM",89.1%
same,"viability, T/C",[5],90.3%
same,"viability, T/C",[6],73.3%
same,"viability, T/C",[7],69.3%
same,"viability, T/C",[8],60.5%
same,"viability, T/C","second compound 0.1 µM, first compound 0.000949 µM",75.6%
same,"viability, T/C","second compound 0.1 µM, first compound 0.003 µM",80.8%
same,"viability, T/C",[9],81.8%
same,"viability, T/C",[10],80.8%
same,"viability, T/C",[11],66%
same,"viability, T/C",[12],73.3%
same,"viability, T/C","second compound 0.316 µM, first compound 0.000949 µM",81.3%
same,"viability, T/C","second compound 0.316 µM, first compound 0.003 µM",85.2%
same,"viability, T/C",[13],82.2%
same,"viability, T/C",[14],79.8%
same,"viability, T/C",[15],70.7%
same,"viability, T/C",[16],68%
same,"viability, T/C","second compound 1 µM, first compound 0.000949 µM",93%
same,"viability, T/C","second compound 1 µM, first compound 0.003 µM",98.5%
same,"viability, T/C",[17],93.7%
same,"viability, T/C",[18],96.7%
same,"viability, T/C",[19],89.5%
same,"viability, T/C",[20],89%
CC(C)(C)c1cnc(CSc2cnc(NC(=O)C3CCNCC3)s2)o1 + CCN1CCN(Cc2ccc(Nc3ncc(F)c(-c4cc(F)c5nc(C)n(C(C)C)c5c4)n3)nc2)CC1,IC50,second compound 0.01 µM,181 nM
same,IC50,second compound 0.0316 µM,181 nM
same,IC50,second compound 0.1 µM,167 nM
same,IC50,second compound 0.316 µM,169 nM
same,IC50,second compound 1 µM,115 nM
same,"viability, T/C",[1],101%
same,"viability, T/C",[2],114%
same,"viability, T/C",[3],114%
same,"viability, T/C",[4],3.69%
same,"viability, T/C","second compound 0.01 µM, first compound 0.949 µM",3.37%
same,"viability, T/C","second compound 0.01 µM, first compound 3 µM",3.55%
same,"viability, T/C",[5],99%
same,"viability, T/C",[6],113%
same,"viability, T/C",[7],118%
same,"viability, T/C",[8],2.94%
same,"viability, T/C","second compound 0.0316 µM, first compound 0.949 µM",2.55%
same,"viability, T/C","second compound 0.0316 µM, first compound 3 µM",2.82%
same,"viability, T/C",[9],100%
same,"viability, T/C",[10],99.9%
same,"viability, T/C",[11],95.3%
same,"viability, T/C",[12],2.53%
same,"viability, T/C","second compound 0.1 µM, first compound 0.949 µM",2.48%
same,"viability, T/C","second compound 0.1 µM, first compound 3 µM",3.11%
same,"viability, T/C",[13],104%
same,"viability, T/C",[14],104%
same,"viability, T/C",[15],97.2%
same,"viability, T/C",[16],2.46%
same,"viability, T/C","second compound 0.316 µM, first compound 0.949 µM",3.54%
same,"viability, T/C","second compound 0.316 µM, first compound 3 µM",3.59%
same,"viability, T/C",[17],109%
same,"viability, T/C",[18],107%
same,"viability, T/C",[19],59.6%
same,"viability, T/C",[20],2.32%
same,"viability, T/C","second compound 1 µM, first compound 0.949 µM",2.79%
same,"viability, T/C","second compound 1 µM, first compound 3 µM",4.16%
COc1c(OCCCN2CCOCC2)ccc2c3n(c(=NC(=O)c4cnc(N)nc4)nc12)CCN3 + CCN1CCN(Cc2ccc(Nc3ncc(F)c(-c4cc(F)c5nc(C)n(C(C)C)c5c4)n3)nc2)CC1,IC50,second compound 0.01 µM,22.8 nM
same,IC50,second compound 0.0316 µM,20.7 nM
same,IC50,second compound 0.1 µM,15.2 nM
same,IC50,second compound 0.316 µM,17.1 nM
same,IC50,second compound 1 µM,25.3 nM
same,"viability, T/C","second compound 0.01 µM, first compound 0.00316 µM",88.7%
same,"viability, T/C","second compound 0.01 µM, first compound 0.01 µM",65.9%
same,"viability, T/C",[21],43.3%
same,"viability, T/C",[22],26.9%
same,"viability, T/C",[23],16%
same,"viability, T/C",[24],8.09%
same,"viability, T/C","second compound 0.0316 µM, first compound 0.00316 µM",75.6%
same,"viability, T/C","second compound 0.0316 µM, first compound 0.01 µM",63.6%
same,"viability, T/C",[25],40.5%
same,"viability, T/C",[26],28%
same,"viability, T/C",[27],11.6%
same,"viability, T/C",[28],7.23%
same,"viability, T/C","second compound 0.1 µM, first compound 0.00316 µM",75.8%
same,"viability, T/C","second compound 0.1 µM, first compound 0.01 µM",53.5%
same,"viability, T/C",[29],40.9%
same,"viability, T/C",[30],26.8%
same,"viability, T/C",[31],13.8%
same,"viability, T/C",[32],6.99%
same,"viability, T/C","second compound 0.316 µM, first compound 0.00316 µM",82.1%
same,"viability, T/C","second compound 0.316 µM, first compound 0.01 µM",55.8%
same,"viability, T/C",[33],42.1%
same,"viability, T/C",[34],26.1%
same,"viability, T/C",[35],15.5%
same,"viability, T/C",[36],7.2%
same,"viability, T/C","second compound 1 µM, first compound 0.00316 µM",91.5%
same,"viability, T/C","second compound 1 µM, first compound 0.01 µM",67.4%
same,"viability, T/C",[37],43.1%
same,"viability, T/C",[38],32.5%
same,"viability, T/C",[39],20.1%
same,"viability, T/C",[40],9.99%
Cc1nc(NC(=O)N2CCCC2C(N)=O)sc1-c1ccnc(C(C)(C)C(F)(F)F)c1 (stereo not given) + CCN1CCN(Cc2ccc(Nc3ncc(F)c(-c4cc(F)c5nc(C)n(C(C)C)c5c4)n3)nc2)CC1,IC50,second compound 0.01 µM,1780 nM
same,IC50,second compound 0.0316 µM,856 nM
same,IC50,second compound 0.1 µM,804 nM
same,IC50,second compound 0.316 µM,1070 nM
same,IC50,second compound 1 µM,1230 nM
same,"viability, T/C",[21],98.5%
same,"viability, T/C",[22],87.2%
same,"viability, T/C",[23],75.9%
same,"viability, T/C",[24],61.1%
same,"viability, T/C",[41],40.4%
same,"viability, T/C",[42],11.9%
same,"viability, T/C",[25],88.5%
same,"viability, T/C",[26],72.3%
same,"viability, T/C",[27],57.2%
same,"viability, T/C",[28],51.2%
same,"viability, T/C",[43],38.7%
same,"viability, T/C",[44],11.7%
same,"viability, T/C",[29],77%
same,"viability, T/C",[30],68.4%
same,"viability, T/C",[31],60.6%
same,"viability, T/C",[32],43.9%
same,"viability, T/C",[45],37.3%
same,"viability, T/C",[46],11.4%
same,"viability, T/C",[33],68.5%
same,"viability, T/C",[34],66.7%
same,"viability, T/C",[35],60.4%
same,"viability, T/C",[36],47.7%
same,"viability, T/C",[47],39.8%
same,"viability, T/C",[48],17%
same,"viability, T/C",[37],92.1%
same,"viability, T/C",[38],83.3%
same,"viability, T/C",[39],66.7%
same,"viability, T/C",[40],56.5%
same,"viability, T/C",[49],34%
same,"viability, T/C",[50],23.5%
Cn1nccc1Nc1nccc(-c2ccn(C(CO)c3ccc(Cl)c(F)c3)c(=O)c2)n1 (stereo not given) + CCN1CCN(Cc2ccc(Nc3ncc(F)c(-c4cc(F)c5nc(C)n(C(C)C)c5c4)n3)nc2)CC1,IC50,second compound 0.01 µM,5690 nM
same,IC50,second compound 0.0316 µM,4080 nM
same,IC50,second compound 0.1 µM,3490 nM
same,IC50,second compound 0.316 µM,6160 nM
same,IC50,second compound 1 µM,2060 nM
same,"viability, T/C",[21],100%
same,"viability, T/C",[22],109%
same,"viability, T/C",[23],110%
same,"viability, T/C",[24],88.8%
same,"viability, T/C",[41],64.1%
same,"viability, T/C",[42],37.3%
same,"viability, T/C",[25],92.2%
same,"viability, T/C",[26],99.8%
same,"viability, T/C",[27],96.3%
same,"viability, T/C",[28],73.5%
same,"viability, T/C",[43],61.6%
same,"viability, T/C",[44],18.1%
same,"viability, T/C",[29],79.2%
same,"viability, T/C",[30],86.7%
same,"viability, T/C",[31],88.6%
same,"viability, T/C",[32],59.6%
same,"viability, T/C",[45],56.5%
same,"viability, T/C",[46],27.6%
same,"viability, T/C",[33],79%
same,"viability, T/C",[34],86.3%
same,"viability, T/C",[35],86%
same,"viability, T/C",[36],71.3%
same,"viability, T/C",[47],63.8%
same,"viability, T/C",[48],40.2%
same,"viability, T/C",[37],81.8%
same,"viability, T/C",[38],79.7%
same,"viability, T/C",[39],85.5%
same,"viability, T/C",[40],58.8%
same,"viability, T/C",[49],50.4%
same,"viability, T/C",[50],39.2%
